Measurements published in ChEMBL document CHEMBL1201862, “PubChem BioAssay data set” (2004).
Activity calls are given as the source filed them.

How the values were obtained:
[1] = inhibitors of PGC1a acetylation in cells, dose response, cell-based, cherry-picked samples (AID 720514); format: functional;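 also: potency may reflect raised or lowered acetylation signal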
[2] = HepG2 cell cytotoxicity, dose response, cytotoxicity control, cherry-picked samples (AID 1159577); format: functional, cell-based
[3] = P. falciparum Dd2 growth inhibitors, dose response, SYBR Green, cherry-picked samples (AID 1159567); format: functional, cell-based
Cytochrome P450 3A4 = Cytochrome P450 3A4 (Homo sapiens, UniProt P08684); settings: Potency;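 also: confirmatory qHTS run detecting inhibitors and substrates of CYP3A4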
Chain of Cytochrome P450 3A4 (P08684 whole entry): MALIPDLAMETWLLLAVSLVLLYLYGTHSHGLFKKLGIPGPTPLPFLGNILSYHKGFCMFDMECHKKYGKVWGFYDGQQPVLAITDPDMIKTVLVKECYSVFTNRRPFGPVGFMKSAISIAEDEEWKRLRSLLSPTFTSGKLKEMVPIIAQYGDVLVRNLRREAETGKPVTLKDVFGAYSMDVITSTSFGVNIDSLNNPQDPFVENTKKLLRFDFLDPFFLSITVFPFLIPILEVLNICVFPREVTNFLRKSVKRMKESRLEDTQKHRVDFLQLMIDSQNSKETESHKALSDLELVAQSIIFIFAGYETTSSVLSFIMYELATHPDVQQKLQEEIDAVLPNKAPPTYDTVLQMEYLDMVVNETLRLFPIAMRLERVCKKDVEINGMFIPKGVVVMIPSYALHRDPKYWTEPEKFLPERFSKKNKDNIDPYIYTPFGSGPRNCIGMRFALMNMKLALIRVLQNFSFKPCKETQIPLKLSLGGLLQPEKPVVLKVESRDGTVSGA

Cytochrome P450 2C9 = Cytochrome P450 2C9 (Homo sapiens, UniProt P11712)
Chain of Cytochrome P450 2C9 (P11712 whole entry): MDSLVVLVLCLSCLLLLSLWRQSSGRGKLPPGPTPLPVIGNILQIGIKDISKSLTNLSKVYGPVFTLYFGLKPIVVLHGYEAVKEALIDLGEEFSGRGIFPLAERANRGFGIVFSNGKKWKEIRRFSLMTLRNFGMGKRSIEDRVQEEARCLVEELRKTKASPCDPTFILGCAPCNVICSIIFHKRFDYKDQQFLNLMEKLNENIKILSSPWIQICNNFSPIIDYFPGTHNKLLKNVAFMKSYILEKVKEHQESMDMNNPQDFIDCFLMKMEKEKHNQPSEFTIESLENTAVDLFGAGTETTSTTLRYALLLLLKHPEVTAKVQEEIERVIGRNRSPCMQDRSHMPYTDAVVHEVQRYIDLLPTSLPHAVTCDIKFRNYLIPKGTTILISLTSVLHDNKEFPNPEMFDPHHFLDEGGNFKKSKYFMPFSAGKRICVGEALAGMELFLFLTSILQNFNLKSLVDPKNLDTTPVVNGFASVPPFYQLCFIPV

Melanocortin receptor 4 = Melanocortin receptor 4 (Homo sapiens, UniProt P32245); format: functional, cell-based;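 also: Cell-based assay with luminescence read-out, confirmatory dose-response testing for agonist activity of biased ligands at MC4R; human U2OS cells with tagged receptor and beta-arrestin; potency of agonists that increase receptor coupling to beta-arrestin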
Chain of Melanocortin receptor 4 (P32245 whole entry): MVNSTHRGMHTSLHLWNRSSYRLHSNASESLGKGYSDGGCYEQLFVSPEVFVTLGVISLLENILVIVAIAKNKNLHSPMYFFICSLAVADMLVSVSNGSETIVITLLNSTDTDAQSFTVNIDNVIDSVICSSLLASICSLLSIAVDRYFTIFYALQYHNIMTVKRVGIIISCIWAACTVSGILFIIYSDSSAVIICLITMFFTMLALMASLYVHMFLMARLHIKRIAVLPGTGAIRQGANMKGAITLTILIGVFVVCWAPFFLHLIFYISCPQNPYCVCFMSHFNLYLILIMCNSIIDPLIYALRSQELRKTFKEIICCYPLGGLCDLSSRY

Cytochrome P450 1A2 = target: T1, Cytochrome P450 1A2 (Homo sapiens, UniProt P05177);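 also: PubChem cytochrome P450 panel assay, CYP1A2 panel member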
T1 sequence (P05177 whole entry): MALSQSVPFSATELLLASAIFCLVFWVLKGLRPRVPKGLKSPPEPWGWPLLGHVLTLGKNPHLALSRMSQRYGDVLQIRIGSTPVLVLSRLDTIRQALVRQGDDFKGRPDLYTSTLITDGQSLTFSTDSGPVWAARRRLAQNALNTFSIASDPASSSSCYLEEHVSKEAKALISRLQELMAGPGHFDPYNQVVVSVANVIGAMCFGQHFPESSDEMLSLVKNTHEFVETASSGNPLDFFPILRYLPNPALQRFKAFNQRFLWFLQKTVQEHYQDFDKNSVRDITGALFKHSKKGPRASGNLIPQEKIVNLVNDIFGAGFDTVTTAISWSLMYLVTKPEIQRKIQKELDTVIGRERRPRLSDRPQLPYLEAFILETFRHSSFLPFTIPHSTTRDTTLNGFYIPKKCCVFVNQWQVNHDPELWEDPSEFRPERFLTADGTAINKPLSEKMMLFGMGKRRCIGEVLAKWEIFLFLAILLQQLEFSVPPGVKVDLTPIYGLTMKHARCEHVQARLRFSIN

[4] = target: T2, Calpain-2 catalytic subunit (Sus scrofa, UniProt P43367); assay: pig calpain II inhibitor potency, dose response, biochemical, fluorogenic peptide substrate (AID 1420); format: functional
T2 sequence (P43367 whole entry): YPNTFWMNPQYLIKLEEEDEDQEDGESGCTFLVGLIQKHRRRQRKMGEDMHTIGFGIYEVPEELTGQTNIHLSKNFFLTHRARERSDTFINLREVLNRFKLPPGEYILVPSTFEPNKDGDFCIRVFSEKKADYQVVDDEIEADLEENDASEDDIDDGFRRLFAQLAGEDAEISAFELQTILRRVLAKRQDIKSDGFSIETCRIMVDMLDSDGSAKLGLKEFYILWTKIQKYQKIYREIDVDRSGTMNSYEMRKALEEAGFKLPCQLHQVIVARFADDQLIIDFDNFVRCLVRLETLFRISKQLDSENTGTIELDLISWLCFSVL

[5] = miR-122 activators in hepatoma reporter cells, dose response, cell-based, Huh7 psiCHECK-miR122, Renilla luciferase, cherry-picked (AID 651956); format: functional;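 also: huh7 hepatoma cells stably carrying a psiCHECK-2 miR-122 sensor plasmid; renilla luciferase signal reporting endogenous miR-122 activity after 48 h compound exposure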
fMet-Leu-Phe receptor = target: T3, fMet-Leu-Phe receptor (Homo sapiens, UniProt P21462); assay: FPR ligands, dose response (AID 519); format: functional
T3 sequence (P21462 whole entry): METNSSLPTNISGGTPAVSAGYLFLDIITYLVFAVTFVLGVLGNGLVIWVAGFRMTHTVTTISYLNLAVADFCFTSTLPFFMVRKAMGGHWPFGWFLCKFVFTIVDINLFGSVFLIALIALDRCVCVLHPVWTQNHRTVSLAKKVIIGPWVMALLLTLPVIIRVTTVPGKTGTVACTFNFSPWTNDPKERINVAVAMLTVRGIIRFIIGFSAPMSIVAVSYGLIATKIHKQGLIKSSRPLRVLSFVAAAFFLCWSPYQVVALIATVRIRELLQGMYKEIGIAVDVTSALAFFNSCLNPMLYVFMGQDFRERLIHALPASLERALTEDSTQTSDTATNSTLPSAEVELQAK

[6] = P. falciparum ATP4 D1247Y mutant growth inhibitors, dose response, NITD609-resistant line, SYBR Green, dry powder (AID 1159571); format: functional, cell-based;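 also: parasites synchronized at ring stage by sorbitol before testing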
[7] = P. falciparum 3D7-ScDHODH growth inhibitors, dose response, SYBR Green, dry powder samples (AID 1159570); format: functional, cell-based;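 also: parasite growth measured after 72 hours of compound exposure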
[8] = HepG2 cell cytotoxicity, dose response, cytotoxicity control, plate reader, dry powder samples (AID 1159569); format: functional, cell-based;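 also: inhibitor potency with signal falling toward the positive control level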
[9] = P. falciparum Dd2 growth inhibitors, dose response, SYBR Green, dry powder samples (AID 1159566); format: functional, cell-based;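 also: potency for growth inhibition with lower SYBR green DNA signal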
cells [10] = format: functional
[11] = Vero E6 cell cytotoxicity, dose response, cytotoxicity control for non-replicating M. tuberculosis project, secondary assay (AID 492998); format: functional, VeroE6; settings: Vero C1008
[12] = THP-1 cell cytotoxicity, dose response, cytotoxicity control for non-replicating M. tuberculosis project (AID 489025); format: functional
[13] = HEK293T cytotoxicity, dose response, cytotoxicity control for miR-122 modulator project, cell-based, activator set, cherry-pick (AID 720690); format: functional;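 also: HEK293T human cells scored for general mammalian cytotoxicity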
[14] = target: T4, Oxysterols receptor LXR-beta (Homo sapiens, UniProt P55055); format: functional, cell-based;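 also: Cell-based luminescence dose-response assay of agonist activity at LXR, run as a confirmatory counterscreen to a daf-12 agonist screen; HEK293 cells with Gal4-LXR fusion and GAL4-driven luciferase reporter; agonist potency from rising luciferase signal of a Gal4-LXR reporter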
T4 sequence (P55055 whole entry): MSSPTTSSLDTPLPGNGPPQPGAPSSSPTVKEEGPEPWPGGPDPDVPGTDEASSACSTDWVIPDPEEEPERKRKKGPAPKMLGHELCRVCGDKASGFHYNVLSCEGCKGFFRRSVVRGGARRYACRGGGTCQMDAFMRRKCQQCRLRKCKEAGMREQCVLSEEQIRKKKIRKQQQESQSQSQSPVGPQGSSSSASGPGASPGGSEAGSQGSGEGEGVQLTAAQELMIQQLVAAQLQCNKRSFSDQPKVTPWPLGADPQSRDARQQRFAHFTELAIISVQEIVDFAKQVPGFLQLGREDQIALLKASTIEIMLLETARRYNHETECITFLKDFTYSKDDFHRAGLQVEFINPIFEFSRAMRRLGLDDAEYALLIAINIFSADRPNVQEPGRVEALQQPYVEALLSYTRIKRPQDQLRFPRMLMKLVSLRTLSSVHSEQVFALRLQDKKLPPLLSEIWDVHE

cells [15] = assay: cells
[16] = Luminescence-based cell-based high throughput dose response assay to identify activators of the DAF-12 from the parasite S. stercoralis (ssDAF-12).; format: functional
[17] = MC4R antagonists, dose response, counter-screen for LGR2 antagonist project, cell-based, plate reader, cherry pick (AID 743444); format: functional;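 also: transfected HEK 293 cells stimulated with alpha-MSH peptide; potency of inhibitors of the alpha-MSH evoked signal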
[18] = target: Luciferin 4-monooxygenase (Photinus pyralis, UniProt P08659); assay: firefly luciferase enzyme inhibitors, dose response, biochemical, luminescence (AID 1891)
Chain of Luciferin 4-monooxygenase (P08659 whole entry): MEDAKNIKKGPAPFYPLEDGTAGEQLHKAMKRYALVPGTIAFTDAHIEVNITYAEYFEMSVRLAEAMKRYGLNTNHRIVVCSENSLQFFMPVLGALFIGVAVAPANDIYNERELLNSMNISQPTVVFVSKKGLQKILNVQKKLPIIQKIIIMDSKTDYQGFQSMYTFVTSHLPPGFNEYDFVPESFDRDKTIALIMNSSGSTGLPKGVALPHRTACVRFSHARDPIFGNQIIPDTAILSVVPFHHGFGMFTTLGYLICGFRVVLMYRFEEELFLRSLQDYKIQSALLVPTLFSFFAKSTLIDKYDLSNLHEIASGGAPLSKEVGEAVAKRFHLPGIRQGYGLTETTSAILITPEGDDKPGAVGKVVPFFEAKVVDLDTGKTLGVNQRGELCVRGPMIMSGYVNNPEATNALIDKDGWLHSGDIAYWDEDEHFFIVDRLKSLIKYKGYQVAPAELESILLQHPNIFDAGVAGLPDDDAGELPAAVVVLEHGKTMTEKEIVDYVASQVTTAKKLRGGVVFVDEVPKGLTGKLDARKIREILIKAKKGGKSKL

[19] = Luminescence Cell-Based Dose Confirmation HTS to Identify Inhibitors of Platelet Dense Granule Release. [Related pubchem assays: 1663 (Primary HTS), 1678 (Summary of Project)]; format: functional
[20] = A549 cell cytotoxicity, dose response, cytotoxicity control, plate reader, cherry-pick, antagonist series (AID 743412); format: functional, cell-based
[21] = HepG2 cell cytotoxicity, dose response, cytotoxicity control, plate reader, cherry-pick, antagonist series (AID 743416); format: functional, cell-based
[22] = LGR2 antagonists, dose response, cell-based, HEK293, CRE-luciferase reporter, cherry pick, set 2 (AID 743343); format: functional;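 also: transfected cells were stimulated with diluted bursicon conditioned medium after compound addition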
[23] = HEK293 cell cytotoxicity, dose response, cytotoxicity control, plate reader, cherry-picked samples (AID 743446); format: functional, cell-based
[24] = target: T5, Microphthalmia-associated transcription factor (Homo sapiens, UniProt O75030); assay: TRPM1 promoter luciferase signal decrease, dose response, MITF inhibitor project, cell-based, SK-MEL-5, cherry-picked, set 3 (AID 493073); format: functional
T5 sequence (O75030 whole entry): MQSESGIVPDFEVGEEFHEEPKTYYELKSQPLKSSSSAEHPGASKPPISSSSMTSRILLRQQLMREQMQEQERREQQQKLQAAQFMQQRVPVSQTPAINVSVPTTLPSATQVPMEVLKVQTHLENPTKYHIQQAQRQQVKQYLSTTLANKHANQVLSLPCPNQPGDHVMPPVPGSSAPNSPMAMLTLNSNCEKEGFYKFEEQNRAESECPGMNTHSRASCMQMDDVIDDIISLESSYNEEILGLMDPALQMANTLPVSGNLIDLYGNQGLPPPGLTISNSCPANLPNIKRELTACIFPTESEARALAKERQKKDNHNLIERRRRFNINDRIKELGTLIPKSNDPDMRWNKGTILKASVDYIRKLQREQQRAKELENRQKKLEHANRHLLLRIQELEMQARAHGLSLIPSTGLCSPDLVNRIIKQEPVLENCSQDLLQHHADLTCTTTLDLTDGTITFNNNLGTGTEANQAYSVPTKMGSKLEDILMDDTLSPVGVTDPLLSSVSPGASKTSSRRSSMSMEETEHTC

CN(C)CCCN(C(=O)CCOc1ccccc1)c1nc2ccc(F)cc2s1
AC50 [1]: 12.8 µM (active)

O=C(Nc1ccccc1F)N1CCCCN2[C@@H](CO)[C@H](c3ccc(C#Cc4ccccc4)cc3)[C@@H]2C1
AC50 [2]: 10.3 µM (active) | AC50 [3]: 0.392 µM (active)

CC1C(=O)OC2C1CC[C@@]1(C)C=CC(=O)[C@@]3(C)O[C@@]213 (some centres undefined)
AC50 (Cytochrome P450 3A4): 39.8 µM (inconclusive)

CCOc1ccc(NC(=S)NC(=O)/C=C/c2ccc(C)cc2)c([N+](=O)[O-])c1
AC50 (Cytochrome P450 2C9): 3.55 µM (inconclusive) | EC50 (Melanocortin receptor 4): > 89.2 µM (inactive) | AC50 (Cytochrome P450 1A2): 15.8 µM (inconclusive) | IC50 [4]: > 50 µM (not active)

C[C@@H]1CN([C@@H](C)CO)S(=O)(=O)c2ccc(C#Cc3ccncc3)cc2O[C@@H]1CN(C)C(=O)C1CCOCC1
AC50 [5]: 0.466 µM (active)

CCOC(=O)c1c(NC(=O)c2cc(C3CC3)on2)sc2c1CCCC2
Ki (fMet-Leu-Phe receptor): > 66.7 µM (inactive)

C(=C\c1ccc([C@@H]2[C@@H]3CN(Cc4cccnc4)C[C@H]2N3)cc1)/c1ccccc1
AC50 [2]: 10.8 µM (active) | AC50 [3]: < 0.3 µM (active)

O=C(C1CCCC1)N1CC(=O)N2[C@H](C1)[C@@H](c1ccc(-c3cccnc3)cc1)[C@@H]2CO
AC50 [6]: 1.52 µM (active) | AC50 [7]: 2.97 µM (active) | AC50 [3]: 1.06 µM (active) | AC50 [8]: > 100 µM (inactive) | AC50 [9]: 0.746 µM (active)

O=C(N/N=C/c1cc([N+](=O)[O-])ccc1O)C12CC3CC(CC(C3)C1)C2
IC50 (cells [10]): 16.3 µM (active) | CC50 [11]: > 20 µM (active) | CC50 [12]: 21 µM (active)

O=C(NCc1cccnc1)C1c2ccccc2C(=O)N1C1CCCCCC1 (centres undefined)
Ki (fMet-Leu-Phe receptor): 36.4 µM (inactive)

COc1ccccc1CNc1nc(Nc2ccccc2Cl)c2sccc2n1
AC50 [13]: 2.71 µM (active)

COc1ccc2c3c([nH]c2c1)[C@H](CO)N(Cc1ccc(Cl)cc1)CC31CCN(Cc2nccs2)CC1
AC50 [6]: 1.11 µM (active) | AC50 [7]: 1.22 µM (active) | AC50 [2]: > 39 µM (inactive) | AC50 [3]: 1.22 µM (active) | AC50 [8]: 25.8 µM (active) | AC50 [9]: 0.781 µM (active)

Oc1ccccc1-c1cc(-c2ccccc2)no1
EC50 [14]: > 67.5 µM (inactive) | EC50 (cells [15]): > 67.5 µM (inactive) | IC50 [16]: > 67.5 µM (inactive)

C[C@@H]1CN([C@H](C)CO)S(=O)(=O)c2ccc(C#Cc3ccccc3F)cc2O[C@@H]1CN(C)C(=O)c1ccc2c(c1)OCO2
AC50 [13]: 20.6 µM (active) | AC50 [5]: 4.28 µM (active)

Cc1ccccc1/N=C/C1=C(O)c2ccccc2C1=O
AC50 [17]: 1.67 µM (active) | EC50 [18]: 1.02 µM (active) | EC50 [19]: 3.79 µM (active) | AC50 [20]: > 52 µM (inactive) | AC50 [21]: > 52 µM (inactive) | AC50 [22]: 1.03 µM (active)

Cn1c(N)c(C(=O)COC(=O)c2cc(C(F)(F)F)nc3ccccc23)c(=O)n(Cc2ccccc2)c1=O
AC50 (Cytochrome P450 3A4): 15.8 µM (inconclusive)

Cc1ccc(-c2ccc([C@H]3[C@@H]4CN(C(=O)Nc5ccc(C(F)(F)F)cc5)C[C@H]3N4)cc2)cc1
AC50 [1]: 9.39 µM (active) | AC50 [2]: 13.1 µM (active) | AC50 [3]: 3.4 µM (active)

N#C[C@H]1[C@H](c2ccccc2C2=CCCCC2)[C@@H](CO)N1S(=O)(=O)c1ccccc1
AC50 [23]: 13.9 µM (active) | AC50 [17]: 2.67 µM (active) | AC50 [20]: 7.94 µM (active) | AC50 [21]: 4.61 µM (active) | AC50 [22]: 7.76 µM (active)

CCCN(C)C[C@@H]1Oc2cc(C#Cc3cccnc3)ccc2S(=O)(=O)N([C@H](C)CO)C[C@@H]1C
AC50 [6]: 1.03 µM (active) | AC50 [7]: 2.35 µM (active) | AC50 [3]: 2.09 µM (active) | AC50 [8]: > 100 µM (inactive) | AC50 [9]: 1.45 µM (active)

CCC(=O)N(C)C[C@@H]1Oc2ncc(C#CCc3ccccc3)cc2C(=O)N([C@H](C)CO)C[C@@H]1C
AC50 [1]: 16.4 µM (active)

COc1cc(C2C(C(=O)c3ccc4c(c3)CC(C)O4)=C(O)C(=O)N2CCCn2ccnc2)ccc1O (centres undefined)
Ki (fMet-Leu-Phe receptor): 57.5 µM (inactive)

CC(=O)n1nc(-c2ccccc2)cc1-c1ccccc1
EC50 [14]: > 67.5 µM (inactive) | EC50 (cells [15]): > 67.5 µM (inactive)

CN1C(=O)c2cc(NC(=O)c3ccc(Cl)cc3)ccc2OC[C@@H]2O[C@H](CC(=O)NCc3cccc(F)c3)CC[C@@H]21
AC50 [13]: 26.6 µM (active)

Cc1cc(C)n(-c2ccc(C(=O)Nc3ccc(C)c(S(=O)(=O)N4CCOCC4)c3)cc2)n1
AC50 [23]: 25.4 µM (active) | AC50 [17]: 13.4 µM (active) | AC50 [24]: 4.54 µM (active) | AC50 [20]: > 52 µM (inactive) | AC50 [21]: 33.8 µM (active) | AC50 [22]: 18.1 µM (active)
